Test results published in patent US7767651B2, “Spiroketal derivatives and use thereof as diabetic medicine” (Chugai Seiyaku Kabushiki Kaisha, priority 2005, dated 2010).
pIC50: −log10 of the molar value.

Tests used:
human SGLT2 = target: T1, human SGLT2 (Homo sapiens, UniProt P31639); experiment: Inhibitory activity against methyl-α-D-glucopyranoside uptake of human SGLT2; type: cell-based; details: SGLT2 inhibition; methyl-α-D-(U-14C)glucopyranoside uptake in CHO-K1 cells stably expressing human SGLT2, 45 minutes at 37° C.
T1 construct: expressed in transfected cells; host or cells: CHO-K1
T1 sequence (P31639 1-672): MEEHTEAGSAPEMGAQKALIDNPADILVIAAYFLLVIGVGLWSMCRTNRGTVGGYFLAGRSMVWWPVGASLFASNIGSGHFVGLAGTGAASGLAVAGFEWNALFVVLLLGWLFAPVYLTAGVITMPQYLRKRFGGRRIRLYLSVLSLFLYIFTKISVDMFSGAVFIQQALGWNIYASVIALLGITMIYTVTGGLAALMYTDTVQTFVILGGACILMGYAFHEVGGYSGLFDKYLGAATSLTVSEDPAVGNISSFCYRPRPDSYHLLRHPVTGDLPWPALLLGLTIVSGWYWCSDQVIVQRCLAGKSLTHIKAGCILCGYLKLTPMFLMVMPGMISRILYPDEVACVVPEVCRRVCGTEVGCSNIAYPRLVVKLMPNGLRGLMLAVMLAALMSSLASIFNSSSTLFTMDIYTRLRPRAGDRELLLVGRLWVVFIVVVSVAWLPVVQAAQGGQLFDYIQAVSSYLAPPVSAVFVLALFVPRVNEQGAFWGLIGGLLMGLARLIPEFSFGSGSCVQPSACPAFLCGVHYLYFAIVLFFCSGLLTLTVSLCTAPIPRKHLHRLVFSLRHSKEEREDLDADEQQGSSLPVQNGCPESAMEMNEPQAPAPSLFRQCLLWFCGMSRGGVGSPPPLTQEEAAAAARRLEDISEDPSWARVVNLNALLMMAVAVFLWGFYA
Text: Evaluation of Inhibitory Activity Against methyl-α-D-glucopyranoside uptake of human Na^+-glucose cotransporter (SGLT1 and SGLT2)
Human SGLT2 cDNA was amplified by PCR with a cDNA library derived from human kidney (Clontech) as a template, synthetic DNA primers and KOD+ DNA Polymerase. The amplified cDNA was inserted into pcRII-Topo vector by using a Topo TA Cloning Dual Promoter kit. E. coli competent cells (TPO10) were transformed with the plasmid vector, cultured in LB medium containing ampicillin (50 mg/L) to grow ampicillin-resistant clones. The plasmid vector containing human SGLT2 cDNA was purified from the clone in a standard manner. Human SGLT2 cDNA added restriction enzyme recognition sites (Xho I at 5′-end, Hind III at 3′-end) was amplified by PCR with the plasmid vector as a template, synthetic DNA primers containing an additional restriction enzyme recognition site and KOD+ DNA Polymerase. This amplified cDNA was digested with Xho I and Hind III, and ligated into expression vector pcDNA3.1(−) digested with Xho I and Hind III by using a Rapid DNA Ligation kit. E. coli competent cells (DH5α) were transformed with the ligated expression vector and grown in ampicillin-containing LB medium. Human SGLT2 expression vector was purified from the ampicillin-resistant clone in a standard manner.
The human SGLT1 expression vector or the human SGLT2 expression vector was digested with the restriction enzyme Pvu I and transfected into CHO-Kl cells with FuGENE (Roche Diagonostics). After the transfection, the cells were cultured at 37° C. in the presence of 5% CO2 for about 3 weeks in DMEM medium (Gibco) containing penicillin (50 U/mL, SIGMA), streptomycin (50 mg/L, SIGMA), geneticin (200 mg/L, Nacalai Tesque, Inc., Japan) and 20% fetal bovine serum to obtain geneticin-resistant clones. Among these clones, clones stably expressing human SGLT1 or human SGLT2 were selected by the evaluating the sodium-dependent uptake activity of sugar (methyl-α-D-glucopyranoside). […]

[1] = test system: sugar transporters of the facilitated diffusion type; details: aglycon of phloridzin; reported; cited from earlier work
[2] = intravenously administered to rats; Nonpatent Document 2; cited from earlier work

Row | pIC50 (human SGLT2) | Compound | inhibition of sugar transporters of the facilitated diffusion type [1] | adverse effect on intracerebral glucose levels [2]
1 | 8.40 | OC[C@H]1O[C@]2(OCc3ccc(Cc4cc5ccccc5s4)cc32)[C@H](O)[C@@H](O)[C@@H]1O [Example 2, 1,1-Anhydro-1-C-[5-(2-benzothiophenyl)methyl-2-(hydroxymethyl)phenyl]-β-D-glucopyranose] |  | 
2 | 8.38 | CCc1ccc(Cc2ccc3c(c2)[C@]2(OC3)O[C@H](CO)[C@@H](O)[C@H](O)[C@H]2O)cc1 [Example 1, 1,1-Anhydro-1-C-[5-(4-ethylphenyl)methyl-2-(hydroxymethyl)phenyl]-β-D-glucopyranose] |  | 
3 | 8.30 | CC(C)c1ccc(Cc2ccc3c(c2)[C@]2(OC3)O[C@H](CO)[C@@H](O)[C@H](O)[C@H]2O)cc1 [Example 4, 1,1-Anhydro-1-C-[5-(4-isopropylphenyl)methyl-2-(hydroxymethyl)phenyl]-β-D-glucopyranose] |  | 
4 |  | O=C(CCc1ccc(O)cc1)c1c(O)cc(O)cc1O [phloretin] | strongly inhibit | reducing intracerebral glucose levels
